Laboratory results: patent US10646508B1, “Method of safely administering nitrate dietary supplements and compositions” (ThermoLife International, LLC, priority 2007, dated 2020)

Columns and labels:
[1] = Intrinsic dissolution profiles (modified Wood's apparatus, USP type II); format: physicochemical
Description: Objective: The objective of this study was to determine the dissolution characteristics of three different forms of commercially available Creatine including Creatine nitrate (CN), Creatine monohydrate (CM) and buffered Creatine (BC) under different temperature and pH. Methods: Intrinsic dissolution studies were carried out at 37° C. and room temperature in pH 2.5 and 7.4 buffer using modified Wood's apparatus. CN, CM and BC samples (˜0.5 g) were compressed in the dies with constant surface area of 1.21 cm2 using a Carver press at 2000 psi with a dwell time of 10 sec. These dies were placed in the USP dissolution apparatus (type II) containing 140 ml of dissolution media, with paddle speed of 50 rpm. Dissolution medium were collected at definite time intervals over a period of 3 hours for CN and 7 hours for both CM and BC and analyzed for Creatine using a validated HPLC method. Results: A plot of the amount of Creatine dissolved (mg)/surface area (cm2) versus time gives the slope (k′) which is directly proportional to the dissolution rate constant. The k′ (mg/cm2 hr) values for CN, CM and BC in pH 2.5 buffer at room temperature were 293.0±3.48, 59.1±2.06 and 71.1±0.59. At 37° C. these k′ (mg/cm2 hr) values were 327.3±2.66, 97.9±0.88 and 117.9±1.12, respectively. In pH 7.4 buffer, the k′ (mg/cm2 hr) values for CN, CM and BC were 278.9±14.6, 52.1±0.22 and 50.6±0.95 at room temperature and 319.5±14.3, 86.0±5.05 and 96.9±9.28 at 37° C., respectively. Conclusions: The dissolution rates of all three Creatine forms were higher at 37° C. as compared to at room temperature. […] However, the dissolution rate of CN was not affected by the pH of the dissolution media. […] Results of this study further predict a better bioavailability of CN as compared to CM and BC.

[2] = Chemical stability of Creatine forms in solution; format: physicochemical; conditions: for pH of samples, initial: start of storage; for degradation rate constant (k): ~10 mg/ml
Description: Methods: A known concentration (˜10 mg/ml) of CN, CM and BC were prepared in both pH 2.5 and pH 6.8 buffer and stored in stability chambers in screw-capped bottles at 37° C. and 40° C., respectively. Samples were collected at predetermined time points and analyzed for Creatine and degradation products if any, using a validated HPLC method. Changes in the pH, clarity and color of the samples were also determined. The order of degradation and rate constant were determined by graphical method. Results: The degradation rate constants (k) for CN, CM and BC at 37° C. in pH 2.5 buffer were 0.075±0.001, 0.119±0.011 and 0.108±0.002 (day-1) while that at 40° C. in pH 6.8 buffer were 0.115±0.001, 0.015±0.001 and 0.013±0.002 (day-1), respectively. The pH of CN samples at 40° C. in pH 6.8 buffer changed from 2.83±0.01 to 4.31±0.01 within a period of 12 days. The pH changes noticed at 37° C. in pH 2.5 buffer samples over the same period of time for CM, and BC were 3.08±0.01 to 4.12±0.01 and 3.11±0.01 and 4.16±0.01, respectively. […] No change in the color and the clarity was noticed over 12 days. Conclusions: All the Creatine samples followed first order degradation kinetics under both these experimental conditions. […] The major degradation product detected was Creatinine. For CN the increase in pH was higher at 40° C. in pH 6.8 buffer as compared to 37° C. in pH 2.5 buffer. However, opposite effect was noticed for both CM and BC.

[3] = pH 2.5 buffer, room temperature
[4] = pH 7.4 buffer, room temperature

Row | Structure (SMILES) | k' (slope, proportional to intrinsic dissolution rate constant) ([1]; pH 2.5 buffer, 37° C.) [mg/cm2 hr] | k' (slope, proportional to intrinsic dissolution rate constant) [1, 3] [mg/cm2 hr] | k' (slope, proportional to intrinsic dissolution rate constant) ([1]; pH 7.4 buffer, 37° C.) [mg/cm2 hr] | k' (slope, proportional to intrinsic dissolution rate constant) [1, 4] [mg/cm2 hr] | pH of samples, after storage ([2]; 37° C. in pH 2.5 buffer, over 12 days) | pH of samples, initial ([2]; 37° C. in pH 2.5 buffer) | degradation rate constant (k) ([2]; 37° C. in pH 2.5 buffer) [day⁻¹] | pH of samples, initial ([2]; 40° C. in pH 6.8 buffer) | pH of samples, after storage ([2]; 40° C. in pH 6.8 buffer, within a period of 12 days) | degradation rate constant (k) ([2]; 40° C. in pH 6.8 buffer) [day⁻¹]
1 | CN(CC(=O)O)C(=N)N.O [CM, Creatine monohydrate, reference compound] | 97.9±0.88 | 59.1±2.06 | 86.0±5.05 | 52.1±0.22 | 4.12±0.01 | 3.08±0.01 | – | – | – | –
2 | CN(CC(=O)O)C(=N)N.O=[N+]([O-])O [CN, Creatine nitrate] | 327.3±2.66 | 293.0±3.48 | 319.5±14.3 | 278.9±14.6 | – | – | 0.075 ± 0.001 | 2.83±0.01 | 4.31±0.01 | 0.115 ± 0.001
